Assay results taken from patent US10294234B2, “HIV inhibitor compounds” (priority 2017, dated 2019).

tested on: HIV-1 (IIIB) in MT-4 cells; test: MT-4 HIV assay; format: cell-based; conditions: Human immunodeficiency virus 1, MT4, 120 h
In short: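 Antiviral activity was read by Cell Titer Glo after a 5-day, 37 °C culture of MT-4 cells pre-infected with a 1:250 dilution of HIV-1 (IIIB). Compounds were tested as threefold dilution series in complete RPMI. Controls were no drug, mock infection and 5 uM AZT.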

Row | SMILES | EC50
1 | COC(=O)N[C@H](C(=O)N[C@H](C(=O)N[C@@H](Cc1ccc(C#Cc2cnc(N3CC4CC(C3)N4C3COC3)nc2)cc1)[C@@H](O)CN(Cc1c(F)cc(-c2ccn(CC(F)F)n2)cc1F)NC(=O)[C@@H](NC(=O)OC)C(C)(C)C)C(C)(C)C)C(C)C [Example 222, Methyl ((5S,8S,11S,12S,17S)-8-(tert-butyl)-14-(4-(1-(2,2-difluoroethyl)-1H-pyrazol-3-yl)-2,6-difluorobenzyl)-12-hydroxy-5-isopropyl-18,18-dimethyl-11-(4-((2-(6-(oxetan-3-yl)-3,6-diazabicyclo[3.1.1]heptan-3-yl)pyrimidin-5-yl)ethynyl)benzyl)-3,6,9,16-tetraoxo-2-oxa-4,7,10,14,15-pentaazanonadecane-17-yl)carbamate] | 12.9 nM
2 | COC(=O)N[C@H](C(=O)N[C@H](C(=O)N[C@@H](Cc1ccc(C#Cc2cnc(N3CC4CC(C3)N4C3COC3)nc2)cc1)[C@@H](O)CN(Cc1c(F)cc(-c2ccn(CC(F)F)n2)cc1F)NC(=O)[C@@H](NC(=O)OC)C(C)(C)C)C(C)(C)C)C(C)(C)C [Example 223, Methyl ((5S,8S,11S,12S,17S)-5,8-di-tert-butyl-14-(4-(1-(2,2-difluoroethyl)-1H-pyrazol-3-yl)-2,6-difluorobenzyl)-12-hydroxy-18,18-dimethyl-11-(4-((2-(6-(oxetan-3-yl)-3,6-diazabicyclo[3.1.1]heptan-3-yl)pyrimidin-5-yl)ethynyl)benzyl)-3,6,9,16-tetraoxo-2-oxa-4,7,10,14,15-pentaazanonadecane-17-yl)carbamate] | 12.9 nM
3 | COC(=O)N[C@H](C(=O)N[C@@H](Cc1ccc(C#Cc2ccc(N3CCN(C(C)=O)CC3)nc2)cc1)[C@@H](O)CN(Cc1c(F)cc(-c2ccn(C)n2)cc1F)NC(=O)[C@@H](NC(=O)OC)C(C)(C)C)C(C)(C)C [Example 228] | 1.66 nM

same assay, conditions: Human immunodeficiency virus 1, MT4, 120 h; HIV-1 (IIIB), MT-4 cells, 5 days, Cell Titer Glo; read-out: EC50

Row | SMILES | EC50
4 | CC1(C(=O)N[C@H](C(=O)N[C@@H](Cc2ccc(-c3cnn(C(F)F)c3)cc2)[C@@H](O)CN(Cc2c(F)cc(-c3cnn(C(F)F)c3)cc2F)NC(=O)[C@@H](NC(=O)C2(C)CC2)C(C)(C)C(F)(F)F)C(C)(C)C(F)(F)F)CC1 [Example 216, N—((S)-1-(2-(4-(1-(difluoromethyl)-1H-pyrazol-4-yl)-2,6-difluorobenzyl)-2-((2S,3S)-4-(4-(1-(difluoromethyl)-1H-pyrazol-4-yl)phenyl)-2-hydroxy-3-((S)-4,4,4-trifluoro-3,3-dimethyl-2-(1-methylcyclopropane-1-carboxamido)butanamido)butyl)hydrazinyl)-4,4,4-trifluoro-3,3-dimethyl-1-oxobutan-2-yl)-1-methylcyclopropane-1-carboxamide] | 114 nM
5 | CC(=O)N[C@H](C(=O)N[C@@H](Cc1ccc(-c2cnn(C(F)F)c2)cc1)[C@@H](O)CN(Cc1c(F)cc(-c2cnn(C(F)F)c2)cc1F)NC(=O)[C@@H](NC(C)=O)C(C)(C)C(F)(F)F)C(C)(C)C(F)(F)F [Example 217, (S)-2-acetamido-N-((2S,3S)-4-(2-((S)-2-acetamido-4,4,4-trifluoro-3,3-dimethylbutanoyl)-1-(4-(1-(difluoromethyl)-1H-pyrazol-4-yl)-2,6-difluorobenzyl)hydrazinyl)-1-(4-(1-(difluoromethyl)-1H-pyrazol-4-yl)phenyl)-3-hydroxybutan-2-yl)-4,4,4-trifluoro-3,3-dimethylbutanamide] | 113 nM
6 | COC(=O)N[C@H](C(=O)NN(Cc1c(F)cc(-c2ccccn2)cc1F)C[C@H](O)[C@H](Cc1ccc(C#Cc2ccc(N3CC4CCC(C3)N4C(=O)[C@@H]3CCCO3)nc2)cc1)NC(=O)[C@@H](NC(=O)OC)C(C)(C)C(F)(F)F)C(C)(C)C [Example 224, Methyl ((5S,8S,9S,14S)-11-(2,6-difluoro-4-(pyridin-2-yl)benzyl)-9-hydroxy-15,15-dimethyl-3,6,13-trioxo-8-(4-((6-(8-((S)-tetrahydrofuran-2-carbonyl)-3,8-diazabicyclo [3.2.1]octan-3-yl)pyridin-3-yl)ethynyl)benzyl)-5-(1,1,1-trifluoro-2-methylpropan-2-yl)-2-oxa-4,7,11,12-tetraazahexadecan-14-yl)carbamate] | 4.12 nM
7 | COC(=O)N[C@H](C(=O)N[C@@H](Cc1ccc(C#Cc2ccc(N3CC4CCC(C3)N4C(=O)[C@@H]3CCCO3)nc2)cc1)[C@@H](O)CN(Cc1c(F)cc(-c2ccccn2)cc1F)NC(=O)[C@@H](NC(=O)OC)C(C)(C)C)C(C)(C)C [Example 225, Methyl ((5S,8S,9S,14S)-5-(tert-butyl)-11-(2,6-difluoro-4-(pyridin-2-yl)benzyl)-9-hydroxy-15,15-dimethyl-3,6,13-trioxo-8-(4-((6-(8-((S)-tetrahydrofuran-2-carbonyl)-3,8-diazabicyclo[3.2.1]octan-3-yl)pyridin-3-yl)ethynyl)benzyl)-2-oxa-4,7,11,12-tetraazahexadecan-14-yl)carbamate] | 4.26 nM
8 | COC(=O)N[C@H](C(=O)N[C@@H](Cc1ccc(C#Cc2ccc(N3CC4CCC(C3)N4c3ncccn3)nc2)cc1)[C@@H](O)CN(Cc1c(F)cc(-c2ccn(C)n2)cc1F)NC(=O)[C@@H](NC(=O)OC)C(C)(C)C)C(C)(C)C [Example 226] | 14.9 nM
9 | COC(=O)N[C@H](C(=O)N[C@@H](Cc1ccc(C#Cc2ccc(N3CC4CCC(C3)N4C(=O)[C@@H]3CCCO3)nc2)cc1)[C@@H](O)CN(Cc1c(F)cc(-c2ccn(C)n2)cc1F)NC(=O)[C@@H](NC(=O)OC)C(C)(C)C)C(C)(C)C [Example 227, Methyl ((5S,8S,9S,14S)-5-(tert-butyl)-11-(2,6-difluoro-4-(1-methyl-1H-pyrazol-3-yl)benzyl)-9-hydroxy-15,15-dimethyl-3,6,13-trioxo-8-(4-((6-(8-((S)-tetrahydrofuran-2-carbonyl)-3,8-diazabicyclo[3.2.1]octan-3-yl)pyridin-3-yl)ethynyl)benzyl)-2-oxa-4,7,11,12-tetraazahexadecan-14-yl)carbamate] | 2.9 nM
10 | COC(=O)N[C@H](C(=O)NN(Cc1ccc(-c2cnn(C(F)F)c2)cc1F)C[C@H](O)[C@H](Cc1ccc(C#Cc2ccc(N3CC4CCC(C3)N4C3COC3)nc2)cc1)NC(=O)[C@@H](NC(=O)OC)C(C)(C)C(F)(F)F)C(C)(C)C [Example 230, methyl ((5S,8S,9S,14S)-11-(4-(1-(difluoromethyl)-1H-pyrazol-4-yl)-2-fluorobenzyl)-9-hydroxy-15,15-dimethyl-8-(4-((6-(8-(oxetan-3-yl)-3,8-diazabicyclo[3.2.1]octan-3-yl)pyridin-3-yl)ethynyl)benzyl)-3,6,13-trioxo-5-(1,1,1-trifluoro-2-methylpropan-2-yl)-2-oxa-4,7,11,12-tetraazahexadecan-14-yl)carbamate] | 3.97 nM
11 | COC(=O)N[C@H](C(=O)N[C@@H](Cc1ccc(C#Cc2ccc(N3CC4CCC(C3)N4C3COC3)nc2)cc1)[C@@H](O)CN(Cc1c(F)cc(-c2ccccn2)cc1Cl)NC(=O)[C@@H](NC(=O)OC)C(C)(C)CF)C(C)(C)CF [Example 234, methyl ((5S,8S,9S,14S)-11-(2-chloro-6-fluoro-4-(pyridin-2-yl)benzyl)-16-fluoro-5-(1-fluoro-2-methylpropan-2-yl)-9-hydroxy-15,15-dimethyl-8-(4-((6-(8-(oxetan-3-yl)-3,8-diazabicyclo[3.2.1]octan-3-yl)pyridin-3-yl)ethynyl)benzyl)-3,6,13-trioxo-2-oxa-4,7,11,12-tetraazahexadecan-14-yl)carbamate] | 2.54 nM
12 | COC(=O)N[C@H](C(=O)N[C@@H](Cc1ccc(C#Cc2ccc(N3CC4CCC(C3)N4C3COC3)nc2)cc1)[C@@H](O)CN(Cc1ccc(-c2ccc(F)cn2)cc1F)NC(=O)[C@@H](NC(=O)OC)C(C)(C)C(F)(F)F)C(C)(C)C(F)(F)F [Example 235, methyl ((5S,8S,9S,14S)-16,16,16-trifluoro-11-(2-fluoro-4-(5-fluoropyridin-2-yl)benzyl)-9-hydroxy-15,15-dimethyl-8-(4-((6-(8-(oxetan-3-yl)-3,8-diazabicyclo[3.2.1]octan-3-yl)pyridin-3-yl)ethynyl)benzyl)-3,6,13-trioxo-5-(1,1,1-trifluoro-2-methylpropan-2-yl)-2-oxa-4,7,11,12-tetraazahexadecan-14-yl)carbamate] | 16.7 nM
13 | COC(=O)N[C@H](C(=O)N[C@@H](Cc1ccc(C#Cc2ccc(N3CC4CCC(C3)N4CC(F)F)nc2)cc1)[C@@H](O)CN(Cc1c(F)cc(-c2ccccn2)cc1Cl)NC(=O)[C@@H](NC(=O)OC)C(C)(C)CF)C(C)(C)CF [Example 238, methyl ((5S,8S,9S,14S)-11-(2-chloro-6-fluoro-4-(pyridin-2-yl)benzyl)-8-(4-((6-(8-(2,2-difluoroethyl)-3,8-diazabicyclo[3.2.1]octan-3-yl)pyridin-3-yl)ethynyl)benzyl)-16-fluoro-5-(1-fluoro-2-methylpropan-2-yl)-9-hydroxy-15,15-dimethyl-3,6,13-trioxo-2-oxa-4,7,11,12-tetraazahexadecan-14-yl)carbamate] | 12.3 nM
14 | COC(=O)N[C@H](C(=O)N[C@@H](Cc1ccc(C#Cc2ccc(N3CC4CCC(C3)N4C(C)C)nc2)cc1)[C@@H](O)CN(Cc1c(F)cc(-c2ccccn2)cc1F)NC(=O)[C@@H](NC(=O)OC)C(C)(C)C(F)(F)F)C(C)(C)C(F)(F)F [Example 240, methyl ((5S,8S,9S,14S)-11-(2,6-difluoro-4-(pyridin-2-yl)benzyl)-16,16,16-trifluoro-9-hydroxy-8-(4-((6-(8-isopropyl-3,8-diazabicyclo[3.2.1]octan-3-yl)pyridin-3-yl)ethynyl)benzyl)-15,15-dimethyl-3,6,13-trioxo-5-(1,1,1-trifluoro-2-methylpropan-2-yl)-2-oxa-4,7,11,12-tetraazahexadecan-14-yl)carbamate] | 5.62 nM
